In patent US20190225650A1, “PEPTIDOMIMETIC MACROCYCLES AND USE THEREOF IN REGULATING HIF1ALPHA” (AILERON THERAPEUTICS, INC., priority 2013, published 2019):
Bridge positions count the residues as written; N and C are the ends. Square brackets hold non-standard residues; d marks the D form. Peptide text beside a SMILES is read from it. R8 = C=CCCCCCC[C@@](C)(N)C(=O)O; S5 = C=CCCC[C@](C)(N)C(=O)O; Nle = CCCC[C@H](N)C(=O)O

Tests used:
[1] = target: T1, flag-tagged HIF1α (AA 786-826) / His6-tagged p300 (AA 323-423) complex (Homo sapiens, UniProt Q09472); assay: HIF1α p300 displacement assay (TR FRET, +CHAPS); assay type: binding; details: read-out: IC50 (nM) (HIF1α_p300 Displacement + CHAPS)
T1 construct: His6-tagged p300 (AA 323-423); made in house; host or cells: E. coli (pETDuet vector)
Outline: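 The co-expressed flag-HIF1α (786-826)/His6-p300 (323-423) complex, purified from E. coli with 0.1 mM ZnSO4, was used at 300 nM final with competitor peptides for 1 h at room temperature. Buffer was 150 mM NaCl, 20 mM HEPES pH 7.4, 7.5 mM CHAPS and 1 mM DTT. Anti-Flag-K (0.5 μM) and anti-His-D2 (4 nM) were then added for 2 h, and IC50s were fitted from the TR-FRET ratio.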

[2] = tested on: HRE-bla ME-180 cells; assay: Reporter gene assay (HRE-bla ME-180 HIF reporter, GeneBLAzer); assay type: cell-based, human; details: for EC50: 24 hour normoxia
Outline: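 A FRET β-lactamase readout of HIF transcription was used. After compound treatment in 0.3% DMSO/media under normoxic conditions, 20 μl of 6× LiveBLAzer-FRET B/G (CCF4-AM) substrate was added. Plates sat 3 hr at room temperature in the dark and were read at 409 Ex/460Em and 409Ex/530Em on a Synergy 2. Inhibition was compared against DMSO vehicle controls, with chetomin as positive control.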

[3] = tested on: HRE-bla ME-180 cells; assay: Cell proliferation assay (viability, MTT, 1% FBS); assay type: cell-based, human
Outline: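 ME-180 cells (2×10^4/well) in Opti-MEM with 1% FBS were pretreated 16 h under normoxia (21% O2), vehicle 0.5% DMSO final. Incubation then continued under normoxia or hypoxia (1% O2); viable cells quantified by MTT-type CellTiter 96 assay.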

Row | Compound | IC50 [1] | EC50 [2] | 18 h Avg % max inhibition at top conc (HIF Rptr-24 hrs normoxia) (μM) [2] | Viability 1% FBS AVG (MTT V3-24 hr Normoxia) (μM) [3]
1 | CCCC[C@H](NC(=O)[C@H](CCC(=O)O)NC(=O)[C@@H](NC(=O)[C@@H](NC(=O)[C@H](CC(C)C)NC(=O)[C@]1(C)CCCC=CCCC[C@](C)(NC(=O)[C@H](CCC(=O)O)NC(=O)[C@H](CCCNC(=N)N)NC(=O)[C@@H](NC(=O)[C@H](Cc2ccccc2)NC(C)=O)[C@@H](C)CC)C(=O)N[C@@H](C(C)C)C(=O)N[C@@H](CC(C)C)C(=O)N[C@@H](CCCC)C(=O)N1)C(C)C)[C@@H](C)CC)C(=O)N[C@@H](C)C(=O)N[C@@H](CC(C)C)C(N)=O [SP-155] (Ac-FIRE[S5]VL[Nle][S5]LVIE[Nle]AL-NH2; staple 5-9) | > 700 nM | > 30 µM | ++ (≤10 but <25: ++) | ++++ (≥30: ++++)
2 | CCCC[C@@H]1NC(=O)[C@H](CC(C)C)NC(=O)[C@](C)(NC(=O)[C@H](CCC(=O)O)NC(=O)[C@H](CCC(=O)O)NC(=O)[C@H](CC(=O)O)NC(=O)[C@@H](NC(=O)[C@H](Cc2ccccc2)NC(C)=O)[C@@H](C)CC)CCCCCCC=CCCC[C@@](C)(C(=O)N[C@@H](CCCC)C(=O)N[C@@H](C)C(=O)N[C@@H](CC(C)C)C(=O)N[C@@H](CC(=O)O)C(=O)N[C@@H](CCCNC(=N)N)C(=O)N[C@H](C(N)=O)[C@@H](C)CC)NC(=O)[C@H]([C@@H](C)CC)NC(=O)[C@H](C(C)C)NC(=O)[C@H](CC(C)C)NC(=O)[C@H](CO)NC1=O [SP-200] (Ac-FIDEE[R8]L[Nle]SLVI[S5][Nle]ALDRI-NH2; staple 6-13) | ≤ 200 nM | > 30 µM | ++++ (≥50: ++++) | ++++ (≥30: ++++)
3 | CCCC[C@@H]1NC(=O)[C@H](CC(C)C)NC(=O)[C@H](C(C)C)NC(=O)[C@@](C)(NC(=O)[C@H](CCC(=O)O)NC(=O)[C@H](CC(=O)O)NC(=O)[C@@H](NC(=O)[C@H](Cc2ccccc2)NC(C)=O)[C@@H](C)CC)CCCC=CCCCC2(CCCC=CCCC[C@](C)(C(=O)N[C@@H](CCCC)C(=O)N[C@@H](C)C(=O)N[C@@H](CC(C)C)C(N)=O)NC(=O)[C@H]([C@@H](C)CC)NC(=O)[C@H](C(C)C)NC(=O)[C@H](CC(N)=O)NC2=O)NC1=O (stereo partly drawn) [SP-210] | 200 to 400 nM | 5 to 15 µM | ++++ (≥50: ++++) | + (<5: +)
4 | CCCC[C@H](NC(=O)[C@H](Cc1ccccc1)NC(=O)[C@@H](NC(=O)[C@H](CCC(=O)O)NC(=O)[C@H](CCC(=O)O)NC(=O)[C@H](CC(=O)O)NC(=O)[C@@H](NC(=O)[C@H](Cc1ccccc1)NC(C)=O)[C@@H](C)CC)C(C)C)C(=O)N[C@@]1(C)CCCC=CCCC[C@@](C)(C(=O)N[C@@H](C)C(=O)N[C@@H](C)C(=O)N[C@@H](CC(C)C)C(=O)N[C@@H](CC(C)C)C(N)=O)NC(=O)[C@H]([C@@H](C)CC)NC(=O)[C@H](C(C)C)NC(=O)[C@H](CC(C)C)NC1=O [SP-247] (Ac-FIDEEVF[Nle][S5]LVI[S5]AALL-NH2; staple 9-13) | 400 to 700 nM | 15 to 30 µM | +++ (≤25 but <50: +++) | ++++ (≥30: ++++)
5 | CCCC[C@H](NC(=O)[C@H](CC(C)C)NC(=O)[C@@H](NC(=O)[C@H](CCC(=O)O)NC(=O)[C@H](CCC(=O)O)NC(=O)[C@H](CC(=O)O)NC(=O)[C@@H](NC(=O)[C@H](CC(N)=O)NC(=O)[C@@H](NC(=O)[C@]1(C)CCCC=CCCCCCC[C@@](C)(NC(=O)[C@H](CCC(=O)O)NC(=O)CNC(=O)[C@H](CCC(N)=O)NC(=O)[C@H](CC(C)C)NC(=O)[C@H](CC(C)C)NC(C)=O)C(=O)N[C@@H](CC(C)C)C(=O)N[C@@H](CC(C)C)C(=O)N[C@@H](CCCNC(=N)N)C(=O)N[C@@H](C)C(=O)N[C@@H](CC(C)C)C(=O)N[C@@H](CC(=O)O)C(=O)N1)C(C)C)[C@@H](C)CC)C(C)C)C(=O)N[C@@]1(C)CCCC=CCCC[C@@](C)(C(=O)N[C@@H](CCCC)C(=O)NCC(N)=O)NC(=O)[C@H]([C@@H](C)CC)NC(=O)[C@H](C(C)C)NC(=O)[C@H](CC(C)C)NC1=O [SP-309] (Ac-LLQGE[R8]LLRALD[S5]VNIDEEVL[Nle][S5]LVI[S5][Nle]G-NH2; staple 6-13, 23-27) | 200 to 400 nM | > 30 µM | + (<10: +) | ++++ (≥30: ++++)
6 | CCCC[C@@H]1NC(=O)[C@H](CC(C)C)NC(=O)[C@](C)(NC(=O)[C@H](CCC(=O)O)NC(=O)[C@H](CCC(=O)O)NC(=O)[C@H](CC(=O)O)NC(=O)[C@@H](NC(=O)[C@H](CC(N)=O)NC(=O)[C@@H](NC(=O)[C@H](CCC(N)=O)NC(=O)[C@H](CC(=O)O)NC(=O)[C@H](CC(C)C)NC(=O)[C@]2(C)CCCC=CCCC[C@](C)(NC(=O)[C@H](CCC(=O)O)NC(=O)CNC(=O)[C@H](CCC(N)=O)NC(=O)[C@H](CC(C)C)NC(=O)[C@H](CC(C)C)NC(C)=O)C(=O)N[C@@H](CC(C)C)C(=O)N[C@@H](CC(C)C)C(=O)N[C@@H](CCCNC(=N)N)C(=O)N2)C(C)C)[C@@H](C)CC)CCCCCCC=CCCC[C@@](C)(C(=O)N[C@@H](CCCC)C(=O)NCC(N)=O)NC(=O)[C@H]([C@@H](C)CC)NC(=O)[C@H](C(C)C)NC(=O)[C@H](CC(C)C)NC(=O)[C@H](CO)NC1=O [SP-330] (Ac-LLQGE[S5]LLR[S5]LDQVNIDEE[R8]L[Nle]SLVI[S5][Nle]G-NH2; staple 6-10, 20-27) | > 700 nM | > 30 µM | + (<10: +) | ++++ (≥30: ++++)

More lines, main results first:

Row | IC50 [1] | EC50 [2] | Compound | 18 h Avg % max inhibition at top conc (HIF Rptr-24 hrs normoxia) (μM) [2] | Viability 1% FBS AVG (MTT V3-24 hr Normoxia) (μM) [3]
7 | 400 to 700 nM | ≤ 5 µM | CCCC[C@H](NC(=O)[C@H](CCC(=O)O)NC(=O)[C@]1(C)CCCC=CCCCCCC[C@@](C)(NC(=O)[C@H](CCC(=O)O)NC(=O)[C@H](CC(=O)O)NC(=O)[C@@H](NC(=O)[C@H](CC(N)=O)NC(=O)[C@@H](NC(=O)[C@H](CCC(N)=O)NC(=O)[C@]2(C)CCCC=CCCC[C@](C)(NC(=O)[C@H](CC(C)C)NC(=O)[C@H](CCC(=O)O)NC(=O)[C@H](CCC(=O)O)NC(=O)[C@H](C)NC(=O)[C@H](CCC(N)=O)NC(=O)[C@H](CC(C)C)NC(=O)[C@H](CC(C)C)NC(C)=O)C(=O)N[C@@H](CCCNC(=N)N)C(=O)N[C@@H](C)C(=O)N[C@@H](CC(C)C)C(=O)N2)C(C)C)[C@@H](C)CC)C(=O)N[C@@H](C(C)C)C(=O)N[C@@H](CC(C)C)C(=O)N[C@@H](CCCC)C(=O)N[C@@H](CO)C(=O)N[C@@H](CC(C)C)C(=O)N[C@@H](C(C)C)C(=O)N1)C(N)=O [SP-367] (Ac-LLQAEEL[S5]RAL[S5]QVNIDE[R8]VL[Nle]SLV[S5]E[Nle]-NH2; staple 8-12, 19-26) | ++++ (≥50: ++++) | ++++ (≥30: ++++)
8 | 400 to 700 nM | > 30 µM | CCCC[C@H](NC(=O)[C@H](CC(C)C)NC(=O)[C@@H](NC(=O)[C@H](CCC(=O)O)NC(=O)[C@H](CCC(=O)O)NC(=O)[C@H](CC(=O)O)NC(=O)[C@@H](NC(=O)[C@H](Cc1ccccc1)NC(C)=O)[C@@H](C)CC)C(C)C)C(=O)N[C@@]1(C)CCCC=CCCC[C@@](C)(C(=O)N[C@@H](CCSC)C(=O)N[C@@H](C)C(=O)N[C@@H](CC(C)C)C(N)=O)NC(=O)[C@H]([C@@H](C)CC)NC(=O)[C@H](C(C)C)NC(=O)[C@H](CC(C)C)NC1=O [SP-224] (Ac-FIDEEVL[Nle][S5]LVI[S5]MAL-NH2; staple 9-13) | ++ (≤10 but <25: ++) | ++++ (≥30: ++++)
9 | > 700 nM | > 30 µM | CCCC[C@H](NC(=O)[C@H](CCC(=O)O)NC(=O)[C@]1(C)CCCC=CCCCCCC[C@@](C)(NC(=O)[C@H](CCC(=O)O)NC(=O)[C@H](CC(=O)O)NC(=O)[C@@H](NC(=O)[C@H](CC(N)=O)NC(=O)[C@@H](NC(=O)[C@H](CCC(N)=O)NC(=O)[C@H](CC(=O)O)NC(=O)[C@H](CC(C)C)NC(=O)[C@]2(C)CCCC=CCCC[C@](C)(NC(=O)[C@H](CCC(=O)O)NC(=O)CNC(=O)[C@H](CCC(N)=O)NC(=O)[C@H](CC(C)C)NC(=O)[C@H](CC(C)C)NC(C)=O)C(=O)N[C@@H](CC(C)C)C(=O)N[C@@H](CC(C)C)C(=O)N[C@@H](CCCNC(=N)N)C(=O)N2)C(C)C)[C@@H](C)CC)C(=O)N[C@@H](C(C)C)C(=O)N[C@@H](CC(C)C)C(=O)N[C@@H](CCCC)C(=O)N[C@@H](CO)C(=O)N[C@@H](CC(C)C)C(=O)N[C@@H](C(C)C)C(=O)N1)C(=O)NCC(N)=O [SP-311] (Ac-LLQGE[S5]LLR[S5]LDQVNIDE[R8]VL[Nle]SLV[S5]E[Nle]G-NH2; staple 6-10, 19-26) | ++ (≤10 but <25: ++) | ++++ (≥30: ++++)
